Experimental data as given in US20180079724A1, “SULFONIC ACID DERIVATIVE COMPOUND, PHOTOACID GENERATOR, RESIST COMPOSITION, CATIONIC POLYMERIZATION INITIATOR, AND CATIONICALLY POLYMERIZABLE COMPOSITION” (ADEKA CORPORATION, priority 2015, published 2018).

Assays:
Type in all cases: physicochemical
[1] = Solubility to propylene glycol monomethyl ether acetate; conditions: propylene glycol monomethyl ether acetate at 25° C., 1%-by-mass increments
Protocol: (§1) The sulfonic acid derivative compound of Compound No. 4 and Comparative Compound 1 represented by the formula below were each dissolved in acetonitrile, and their absorption spectra were measured using a solar photometer U-3010 to determine the values of λmax and α (molar extinction coefficient) for absorption in a range of 300 nm to 400 nm as well as the value of E at 365 nm. In addition, their solubility to propylene glycol monomethyl ether acetate at 25° C. was evaluated. As for the solubility, the concentration of each compound was increased by 1%-by-mass increments, and the concentration at which no compound was left undissolved was determined to indicate the solubility in terms of this concentration.

[2] = UV absorption spectrum in acetonitrile; conditions: for Maximum absorption wavelength (nm): absorption in a range of 300 nm to 400 nm; for Molar extinction coefficient ϵ (at maximum absorption wavelength): at λmax in 300 nm to 400 nm
Protocol: as §1

[3] = Acid generation rate (photodegradation rate by HPLC after 365 nm UV irradiation); conditions: 365 nm UV 100 mW/cm^2, 1.5×10^−4 mol/L in acetonitrile/water=9/1
Protocol: For each of the sulfonic acid derivative compound of Compound No. 4 and Comparative Compound 1, a 1.5×10^−4 mol/L acetonitrile/water mixed solution (volume ratio: acetonitrile/water=9/1) was prepared, and exactly 5.0 mL of the mixed solution was placed in a Petri dish having an inner diameter of 42 mm. Using a UV lamp and a cut filter transmitting only light having a wavelength of about 365 nm, which are manufactured by Hoya Candeo Optronics Corporation, the mixed solution was irradiated with UV having an intensity of 100 mW/cm^2. The irradiation was performed for 0.5 seconds, 1 second and 3 seconds for each solution. After this exposure, the photodegradation rate (%) was determined by HPLC as the acid generation rate.

Transmittance at 365 nm = conditions: in acetonitrile
Protocol: The sulfonic acid derivative compound of Compound No. 4 and Comparative Compound 2 represented by the formula below were each dissolved in acetonitrile, and their absorption spectra were measured using a solar photometer U-3010 to determine the transmittance at 365 nm.

Structure (SMILES) | Solubility (% by mass) [1] | Molar extinction coefficient, ϵ, at 365 nm [2] | Maximum absorption wavelength (nm) [2] | Molar extinction coefficient ϵ (at maximum absorption wavelength) [2] | Photodegradation rate (%) ([3]; 0.5 seconds) | Photodegradation rate (%) ([3]; 1 second) | Photodegradation rate (%) ([3]; 3 seconds) | Transmittance at 365 nm (%) (Transmittance at 365 nm)
O=C1c2cccc3cccc(c23)C(=O)N1OS(=O)(=O)C(F)(F)F [Comparative Compound 1] | 1.9 % by mass | 0.7 × 10^3 | 336.0 nm | 1.42 × 10^4 | 21.4% | 36.9% | 68.4% | 
CCCCc1ccc2c3c(cccc13)C(=O)N(OS(=O)(=O)C(F)(F)F)C2=O [Comparative Compound 2] |  |  |  |  |  |  |  | 1.1%
CCCCc1cc2c3c(cccc3c1)C(=O)N(OS(=O)(=O)C(F)(F)F)C2=O [Compound No. 4] | 20 % by mass | 5.40 × 10^3 | 339.5 nm | 1.31 × 10^4 | 62.0% | 86.7% | 100% | 34.1%
